Data set [1] deals with PDE4 (cytosol from human neutrophils). In words: Inhibition of PDE4 activity, Method a ([3H]cAMP hydrolysis, cytosol from human neutrophils). The data set is classed as biochemical. The arrangement: unit not given here. As to conditions: 0.5 μM cAMP, Motapizone 1 μM. As to the method: PDE4 activity was determined as described by Thompson et al. (Adv Cycl Nucl Res 10: 69-92, 1979) with some modifications (Bauer and Schwabe, Naunyn-Schmiedeberg's Arch Pharmacol 311: 193-198, 1980). At a final assay volume of 200 μl (96 well microtiter plates) the assay mixture contained 20 mM Tris (pH 7.4), 5 mM MgCl2, 0.5 μM cAMP, [^3H]cAMP (about 30,000 cpm/assay), the test compound and an aliquot of cytosol from human neutrophils which mainly contains PDE4 activity as described by Schudt et al. (Naunyn-Schmiedeberg's Arch Pharmacol 344: 682-690, 1991); the PDE3-specific inhibitor Motapizone (1 μM) was included to suppress PDE3 activity originating from contaminating platelets. Serial dilutions of the compounds were prepared in DMSO and further diluted 1:100 (v/v) in the assays to obtain the desired final concentrations of the inhibitors at a DMSO concentration of 1% (v/v) which by itself only slightly affected PDE4 activity.
After preincubation for 5 min at 37° C., the reaction was started by the addition of substrate (cAMP) and the assays were incubated for further 15 min at 37° C. 50 μl of 0.2 N HCl was added to stop the reaction and the assays were left on ice for about 10 min. Following incubation with 25 μg 5′-nucleotidase (Crotalus atrox snake venom) for 10 min at 37° C., the assays were loaded on QAE Sephadex A-25 (1 ml bed volume). The columns were eluted with 2 ml of 30 mM ammonium formiate (pH 6.0) and the eluate was counted for radioactivity. Results were corrected for blank values (measured in the presence of denatured protein) which were below 5% of total radioactivity. […] The IC50-values for the compounds according to the invention for the inhibition of the PDE4 activity were determined from the concentration-inhibition curves by nonlinear-regression.

Another data set has as its target T1, PDE4B2 (GB no. M97515) (Homo sapiens, UniProt Q07343).
T1 construct: made in house; host or cells: SF21 insect cells (baculovirus; virus made in SF9 cells)
The experiment in a line: Inhibition of PDE4B2 activity, Method b (modified SPA test, recombinant PDE expressed in SF21 cells). As to conditions: 0.5 μM cAMP, read-out: Inhibition of the PDE4 activity, −log IC50 (converted). The data set is classed as biochemical. The protocol: The PDE4B2 (GB no. M97515) was a gift of Prof. M. Conti (Stanford University, USA). It was amplified from the original plasmid (pCMV5) via PCR with primers Rb9 (5′-[…]-3′) and Rb10 (5′-[…]-3′) and cloned into the pCR-Bac vector (Invitrogen, Groningen, NL).
The recombinant baculovirus was prepared by means of homologous recombination in SF9 insect cells. The expression plasmid was cotransfected with Bac-N-Blue (Invitrogen, Groningen, NL) or Baculo-Gold DNA (Pharmingen, Hamburg) using a standard protocol (Pharmingen, Hamburg). Wt virus-free recombinant virus supernatant was selected using plaque assay methods. After that, high-titre virus supernatant was prepared by amplifying 3 times. PDE was expressed in SF21 cells by infecting 2×10^6 cells/ml with an MOI (multiplicity of infection) between 1 and 10 in serum-free SF900 medium (Life Technologies, Paisley, UK). The cells were cultured at 28° C. for 48-72 hours, after which they were pelleted for 5-10 min at 1000 g and 4° C.
The SF21 insect cells were resuspended, at a concentration of approx. 10^7 cells/ml, in ice-cold (4° C.) homogenization buffer (20 mM Tris, pH 8.2, containing the following additions: 140 mM NaCl, 3.8 mM KCl, 1 mM EGTA, 1 mM MgCl2, 10 mM β-mercaptoethanol, 2 mM benzamidine, 0.4 mM Pefablock, 10 μM leupeptin, 10 μM pepstatin A, 5 μM trypsin inhibitor) and disrupted by ultrasonication. The homogenate was then centrifuged for 10 min at 1000×g and the supernatant was stored at −80° C. until subsequent use (see below). The protein content was determined by the Bradford method (BioRad, Munich) using BSA as the standard.
PDE4B2 activity is inhibited by the said compounds in a modified SPA (scintillation proximity assay) test, supplied by Amersham Biosciences (see procedural instructions “phosphodiesterase [3H]cAMP SPA enzyme assay, code TRKQ 7090”), carried out in 96-well microtiter plates (MTP's). The test volume is 100 μl and contains 20 mM Tris buffer (pH 7.4), 0.1 mg of BSA (bovine serum albumin)/ml, 5 mM Mg^2+, 0.5 μM cAMP (including about 50,000 cpm of [3H]cAMP), 1 μl of the respective substance dilution in DMSO and sufficient recombinant PDE (1000×g supernatant, see above) to ensure that 10-20% of the cAMP is converted under the said experimental conditions. […] After a preincubation of 5 min at 37° C., the reaction is started by adding the substrate (cAMP) and the assay is incubated for a further 15 min; after that, it is stopped by adding SPA beads (50 μl). In accordance with the manufacturer's instructions, the SPA beads had previously been resuspended in water, but were then diluted 1:3 (v/v) in water; the diluted solution also contains 3 mM IBMX to ensure a complete PDE activity stop. After the beads have been sedimented (>30 min), the MTP's are analyzed in commercially available luminescence detection devices. The corresponding IC50 values of the compounds for the inhibition of PDE activity are determined from the concentration-effect curves by means of non-linear regression.

A word on the melting point: it is the temperature, or range, at which the solid turns liquid. As usually defined, the IC50 is the concentration at which inhibition is half-maximal.

T1 sequence (Q07343 1-564 isoform Q07343-2): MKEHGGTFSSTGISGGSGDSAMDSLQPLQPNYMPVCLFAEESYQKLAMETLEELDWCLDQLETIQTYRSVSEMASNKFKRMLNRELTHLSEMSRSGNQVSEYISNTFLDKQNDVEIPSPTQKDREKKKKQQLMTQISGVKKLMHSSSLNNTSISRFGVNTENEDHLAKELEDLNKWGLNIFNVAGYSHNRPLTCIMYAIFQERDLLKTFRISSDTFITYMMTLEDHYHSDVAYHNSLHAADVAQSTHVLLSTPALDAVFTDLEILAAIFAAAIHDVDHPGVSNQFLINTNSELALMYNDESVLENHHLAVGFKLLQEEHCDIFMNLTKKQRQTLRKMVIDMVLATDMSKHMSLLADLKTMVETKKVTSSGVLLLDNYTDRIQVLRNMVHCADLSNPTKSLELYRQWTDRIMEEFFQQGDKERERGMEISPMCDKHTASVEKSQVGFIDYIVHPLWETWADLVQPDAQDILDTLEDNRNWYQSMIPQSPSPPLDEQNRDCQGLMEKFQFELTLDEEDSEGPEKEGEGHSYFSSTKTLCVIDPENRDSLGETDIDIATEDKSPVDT

In turn, `COc1cc2c(cc1OC)C1CC(OC(C)=O)CCC1N=C2c1ccc([N+](=O)[O-])cc1` (racemic) [Compound 5, (±)-Acetic acid (2RS,4aRS,10bRS)-6-(4-nitrophenyl)-8,9-dimethoxy-(1,2,3,4,4a,10b)-hexahydrophenanthridin-2-yl ester] came in with a melting point of 77 to 88 °C. Also, the “Inhibition of the PDE4 activity, −log IC50” value (shortened to “Inhibition … −log IC50”) in data set [1] stood at 7.09. Regarding `COc1cc2c(cc1OC)C1CC(OC(C)=O)CCC1N=C2c1ccc(OCC2CC2)c(OCC2CC2)c1` (racemic) [Compound 6, (±)-Acetic acid (2SR,4aRS,10bRS)-6-(3,4-bis-cyclopropylmethoxyphenyl)-8,9-dimethoxy-(1,2,3,4,4a,10b)-hexahydrophenanthridin-2-yl ester], the “Inhibition … −log IC50” value in data set [1] came to 7.26.

Consider `COc1cc2c(cc1OC)C1CC(O)CCC1N=C2c1ccc(OCC2CC2)c(OCC2CC2)c1` (racemic) [Compound 7, (±)-(2RS,4aRS,10bRS)-6-(3,4-Bis-cyclopropylmethoxyphenyl)-8,9-dimethoxy-(1,2,3,4,4a,10b)-hexahydrophenanthridin-2-ol], for which the melting point lay within 83 to 92 °C. The “Inhibition … −log IC50” value in data set [1] stood at 8.98. The compound `COC(=O)c1ccc(C2=NC3CCC(O)CC3c3cc(OC)c(OC)cc32)cc1` (racemic) [Compound 8, (±)-(2RS,4aRS,10bRS)-6-(4-Methoxycarbonylphenyl)-8,9-dimethoxy-(1,2,3,4,4a,10b)-hexahydrophenanthridin-2-ol] came in with a melting point of 94 to 105 °C. Besides, the “Inhibition … −log IC50” value in data set [1] worked out at 9.21. In turn, `COc1cc2c(cc1OC)C1CC(O)CCC1N=C2c1ccc(N(C)C)cc1` (racemic) [Compound 9, (±)-(2RS,4aRS,10bRS)-6-(4-Dimethylaminophenyl)-8,9-dimethoxy-(1,2,3,4,4a,10b)-hexahydrophenanthridin-2-ol] gave a melting point of 115 to 121 °C. The “Inhibition … −log IC50” value in data set [1] was determined as 7.13. In the case of `COc1ccc(C2=NC3CCC(O)CC3c3cc(OC)c(OC)cc32)cc1OC` (racemic) [Compound 10, (±)-(2RS,4aRS,10bRS)-6-(3,4-Dimethoxyphenyl)-8,9-dimethoxy-(1,2,3,4,4a,10b)-hexahydrophenanthridin-2-ol], the melting point fell in the range of 104 to 110 °C. Moreover, the “Inhibition … −log IC50” value in data set [1] was found to be 8.71. Consider `COc1cc2c(cc1OC)C1CC(O)CCC1N=C2c1ccc([N+](=O)[O-])cc1` (racemic) [Compound 11, (±)-(2RS,4aRS, 10bRS)-6-(4-Nitrophenyl)-8,9-dimethoxy-(1,2,3,4,4a,10b)-hexahydrophenanthridin-2-ol], for which the melting point lay in the range of 178 to 181 °C. Moreover, in data set [1], the “Inhibition … −log IC50” value was 9.11. The corresponding values for `COc1cc2c(cc1OC)C1CC(O)CCC1N=C2c1ccc(C(=O)O)cc1` (racemic) [Compound 12, (±)-(2RS,4aRS,10bRS)-6-(4-Carboxyphenyl)-8,9-dimethoxy-(1,2,3,4,4a,10b)-hexahydro-phenanthridin-2-ol] are 172 to 183 °C and 8.25.

For the compound `COc1cc2c(cc1OC)C1CC(O)CCC1N=C2c1ccc(OCC2CC2)c(OCC2CC2)c1` (racemic) [Compound 13, (±)-(2SR,4aRS, 10bRS)-6-(3,4-Bis-cyclopropylmethoxyphenyl)-8,9-dimethoxy-(1,2,3,4,4a,10b)-hexahydrophenanthridin-2-ol], the melting point lay within 114 to 118 °C. Besides, in data set [1], the “Inhibition … −log IC50” value turned out to be 8.12. As to `CCOc1cc2c(cc1OC)C(c1ccc(OC(F)(F)C(F)F)cc1)=N[C@@H]1CC[C@@H](O)C[C@H]21` (racemic) [Compound 57, (±)-(2RS,4aRS,10bRS)-9-Ethoxy-8-methoxy-6-[4-(1,1,2,2-tetrafluoro-ethoxy)-phenyl]-1,2,3,4,4a,10b-hexahydro-phenanthridin-2-ol], the IC50 at PDE4B2 (GB no. M97515) was 0.182 to 6.03 nM. For the compound `CCOc1cc2c(cc1OC)C(c1ccc(OC(F)(F)F)cc1)=N[C@@H]1CC[C@@H](O)C[C@H]21` (racemic) [Compound 58, (±)-(2RS,4aRS,10bRS)-9-Ethoxy-8-methoxy-6-(4-trifluoromethoxy-phenyl)-1,2,3,4,4a,10b-hexahydro-phenanthridin-2-ol], the IC50 at PDE4B2 (GB no. M97515) was 0.182 to 6.03 nM. Take `CCOc1cc2c(cc1OC)C(c1ccc(OC)c(F)c1)=N[C@@H]1CC[C@@H](O)C[C@H]21` (racemic) [Compound 59, (±)-(2RS,4aRS,10bRS)-9-Ethoxy-6-(3-fluoro-4-methoxy-phenyl)-8-methoxy-1,2,3,4,4a,10b-hexahydro-phenanthridin-2-ol]: on PDE4B2 (GB no. M97515), the IC50 was 0.182 to 6.03 nM.

On to `CCOc1cc2c(cc1OC)C(c1ccc(F)c(F)c1)=N[C@@H]1CC[C@@H](O)C[C@H]21` (racemic) [Compound 60, (±)-(2RS,4aRS,10bRS)-6-(3,4-Difluoro-phenyl)-9-ethoxy-8-methoxy-1,2,3,4,4a,10b-hexahydro-phenanthridin-2-ol], for which, on PDE4B2 (GB no. M97515), the IC50 is 0.182 to 6.03 nM. On the same count and under the same terms, to `CCOc1cc2c(cc1OC)C(c1cccc(F)c1)=N[C@@H]1CC[C@@H](O)C[C@H]21` (racemic) [Compound 61, (±)-(2RS,4aRS, 10bRS)-9-Ethoxy-6-(3-fluoro-phenyl)-8-methoxy-1,2,3,4,4a,10b-hexahydro-phenanthridin-2-ol] belongs 0.182 to 6.03 nM. On the same count and under the same terms, with `CCOc1cc2c(cc1OC)C(c1ccc(Br)cc1)=N[C@@H]1CC[C@@H](O)C[C@H]21` (racemic) [Compound 62, (±)-(2RS,4aRS,10bRS)-6-(4-Bromo-phenyl)-9-ethoxy-8-methoxy-1,2,3,4,4a,10b-hexahydro-phenanthridin-2-ol] the figure was 0.182 to 6.03 nM; with `COc1cc2c(cc1OC)[C@H]1C[C@H](O)CC[C@H]1N=C2c1ccc(C)cc1` (racemic) [Compound 63, (±)-(2RS,4aRS,10bRS)-8,9-Dimethoxy-6-p-tolyl-1,2,3,4,4a,10b-hexahydro-phenanthridin-2-ol], 0.182 to 6.03 nM.

As for `COc1cc2c(cc1OC)[C@H]1C[C@H](O)CC[C@H]1N=C2c1ccc(Oc2ccccc2)cc1` (racemic) [Compound 64, (±)-(2RS,4aRS,10bRS)-8,9-Dimethoxy-6-(4-phenoxy-phenyl)-1,2,3,4,4a,10b-hexahydro-phenanthridin-2-ol], the IC50 at PDE4B2 (GB no. M97515) is 0.182 to 6.03 nM.

On to `COCCO[C@@H]1CC[C@H]2N=C(c3ccc(OCC4CC4)c(OCC4CC4)c3)c3cc(OC)c(OC)cc3[C@H]2C1` (racemic) [Compound 76, (±)-(2RS,4aRS,10bRS)-6-(3,4-Bis-cyclopropylmethoxy-phenyl)-8,9-dimethoxy-2-(2-methoxy-ethoxy)-1,2,3,4,4a,10b-hexahydro-phenanthridine], for which the IC50 at PDE4B2 (GB no. M97515) was 0.182 to 6.03 nM.

The values are drawn from US7632844B2, “2-hydroxy-6-phenylphenanthridines as PDE-4 inhibitors” (Nycomed GmbH, priority 2002, dated 2009).
